Results: ChEMBL document CHEMBL1137802, “Specific antioxidant activity of caffeoyl derivatives and other natural phenolic compounds: LDL protection against oxidation and decrease in the proinflammatory lysophosphatidylcholine production” (J Nat Prod, 2001)

How the values were obtained:
Format in all cases: functional, cell-free
[1] = Antioxidant activity against Cu2+-induced lipid peroxidation in human plasma LDL assessed as maximal compound concentration at 5 umol/L preincubated for 1 hr before Cu2+ challenge measured after 90 mins relative to compound present at 0 min
[2] = Antioxidant activity against Cu2+-induced lipid peroxidation in human plasma LDL assessed as maximal compound concentration at 10 umol/L preincubated for 1 hr before Cu2+ challenge measured after 120 mins relative to compound present at 0 min
[3] = Antioxidant activity against Cu2+-induced lipid peroxidation in human plasma LDL assessed as vitamin E consumption at 10 umol/L preincubated for 1 hr before Cu2+ challenge measured after 180 mins
[4] = Antioxidant activity against Cu2+-induced lipid peroxidation in human plasma LDL assessed as conjugated diene formation at 20 umol/L preincubated for 1 hr before Cu2+ challenge measured after 270 mins
[5] = Antioxidant activity against Cu2+-induced lipid peroxidation in human plasma LDL assessed as vitamin E consumption at 5 umol/L preincubated for 1 hr before Cu2+ challenge measured after 150 mins
[6] = Antioxidant activity against Cu2+-induced lipid peroxidation in human plasma LDL assessed as lysophosphatidylcholine formation at 10 umol/L preincubated for 1 hr before Cu2+ challenge measured after 150 mins
[7] = Antioxidant activity against Cu2+-induced lipid peroxidation in human plasma LDL assessed as vitamin E consumption at 5 umol/L preincubated for 1 hr before Cu2+ challenge measured after 30 mins
[8] = Antioxidant activity against Cu2+-induced lipid peroxidation in human plasma LDL assessed as conjugated diene formation at 5 umol/L preincubated for 1 hr before Cu2+ challenge measured after 90 mins

CC(C)(Sc1cc(C(C)(C)C)c(O)c(C(C)(C)C)c1)Sc1cc(C(C)(C)C)c(O)c(C(C)(C)C)c1
Activity [1]: 55.3% | Activity [2]: 37.2% | Activity [3]: 0% | Activity [4]: 2.6% | Activity [5]: 0% | Activity [6]: 3% | Activity [7]: 15.5% | Activity [8]: 37.9%
